Results reported in article PMC10353187, “Discovery of a new potent oxindole multi-kinase inhibitor among a series of designed 3-alkenyl-oxindoles with ancillary carbonic anhydrase inhibitory activity as antiproliferative agents” (BMC Chemistry, 2023).
Read-outs that look alike come from different tables or passages of the source.

Columns and labels:
UO-31 = experiment: NCI-60 single-dose antiproliferative assay (SRB); assay type: cell-based, human; settings: Homo sapiens, UO-31, 10 μM single dose; UO-31, Renal cancer; read-out: Cell Growth inhibition Percent
Experimental: (§1) From the newly synthesized compounds, eleven compounds (4c, 4d, 5, 9a, 9b, 11a, 11b, 13b, 13c, 15b, and 15c) were selected by the National Cancer Institute (NCI) Developmental Therapeutics Program (DTP), Bethesda, Maryland, USA for the in vitro anti-proliferative activity evaluation. The selected compounds were examined at 10 μM dose against the NCI 60-cell line panel. This panel consists of nine cell line groups of leukemia, non-small cell lung carcinoma (NSCLC), melanoma, colon, CNS, ovarian, renal, prostate, and breast cancers. The results are reported as mean-graph of the percent growth relative to control and presented as percentage growth inhibition (GI%), furthermore, mean GI% of each compound over all panel cell lines was calculated (Table 1; Additional file 1; S3: In vitro biological activity).
(§2) From the newly synthesized compounds, eleven compounds were selected by the National Cancer Institute (NCI) Developmental Therapeutics Program (DTP), Bethesda, Maryland, USA for the in vitro anti-proliferative activity evaluation (For further details see supplementary materials).
(§3) NCI In-vitro Cancer Screening is a two-phase procedure that starts with the assessment of all compounds against the sixty NCI cell line panel depicting leukemia, NSCLC, CNS cancer, melanoma, prostate cancer, breast cancer, renal cancer, colon cancer and ovarian cancer cell lines at a single point of 10μM. The output from the single-dose screen is reportable as a mean graph.
(§4) The human tumor cell lines of the cancer screening panel were grown in RPMI 1640 medium containing 5% fetal bovine serum and 2 mM L-glutamine. For a typical screening experiment, cells were inoculated into 96 well microtiter plates in […] at plating densities ranging from 5000 to 40,000 cells/well depending on the doubling time of individual cell lines. After cell inoculation, the microtiter plates were incubated at 37 °C, 5% CO2, 95% air and 100% relative humidity for 24 h prior to addition of experimental drugs. After 24 h, two plates of each cell line were fixed in situ with trichloroacetic acid (TCA), to represent a measurement of the cell population for each cell line at the time of drug addition (Tz). Experimental drugs were solubilized in dimethyl sulfoxide at 400-fold the desired final maximum test concentration and stored frozen prior to use. At the time of drug addition, an aliquot of frozen concentrate was thawed and diluted to twice the desired final maximum test concentration with complete medium containing 50 µg/ml gentamicin. Aliquot of 100 µl of the drug dilution was added to the appropriate microtiter wells already containing 100 µl of medium, resulting in the required final drug concentration (10 µM). Triplicate wells were prepared for each individual dose. Following drug addition, the plates were incubated for an additional 48 h at 37 °C, 5% CO2, 95% air, and 100% relative humidity. For adherent cells, the assay was terminated by the addition of cold TCA. Cells were fixed in situ by the gentle addition of 50 µl of cold 50% (w/v) TCA (final concentration, 10% TCA) and incubated for 60 min at 4 °C. The supernatant was discarded, and the plates were washed five times with tap water and air dried. Sulforhodamine B (SRB) solution (100 µl) at 0.4% (w/v) in 1% acetic acid was added to each well, and plates were incubated for 10 min at room temperature. After staining, unbound dye was removed by washing five times with 1% acetic acid and the plates were air dried. Bound stain was subsequently solubilized with 10 mM trizma base, and the absorbance was read on an automated plate reader at a wavelength of 515 nm. For suspension cells, the methodology was the same except that the assay was terminated by fixing settled cells at the bottom of the wells by gently adding 50 µl of 80% TCA (final concentration, 16% TCA). […]

hCA XII [1] = molecular target: T1, hCA XII (Homo sapiens, UniProt O43570); experiment: Stopped flow CO2 hydrase assay
T1 sequence (O43570 25-354): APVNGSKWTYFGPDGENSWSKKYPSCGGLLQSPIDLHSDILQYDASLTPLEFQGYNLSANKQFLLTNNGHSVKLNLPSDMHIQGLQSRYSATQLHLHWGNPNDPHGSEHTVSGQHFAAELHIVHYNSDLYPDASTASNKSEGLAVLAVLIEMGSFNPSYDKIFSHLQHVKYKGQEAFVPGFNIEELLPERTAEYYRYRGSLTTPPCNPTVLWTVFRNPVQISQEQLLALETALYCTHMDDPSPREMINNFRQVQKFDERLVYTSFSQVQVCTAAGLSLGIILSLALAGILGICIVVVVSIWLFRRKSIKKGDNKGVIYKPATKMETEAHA

hCA IX [2] = molecular target: T2, hCA IX (Homo sapiens, UniProt Q16790); experiment: Stopped flow CO2 hydrase assay
A498 = experiment: NCI-60 single-dose antiproliferative assay (SRB); assay type: cell-based; settings: Homo sapiens; 10 μM single dose; A498, Renal cancer; read-out: Cell Growth inhibition Percent
Experimental: as §1, §2, §3, §4

RPMI-8226 = experiment: NCI-60 single-dose antiproliferative assay (SRB); assay type: cell-based; settings: Homo sapiens; 10 μM single dose; RPMI-8226, Leukemia; read-out: Cell Growth inhibition Percent
Experimental: as §1, §2, §3, §4

SR = experiment: NCI-60 single-dose antiproliferative assay (SRB); assay type: cell-based; settings: Homo sapiens, 10 μM single dose, Leukemia, read-out: Cell Growth inhibition Percent
Experimental: as §1, §2, §3, §4

MCF7 = experiment: NCI-60 single-dose antiproliferative assay (SRB); assay type: cell-based; settings: Homo sapiens; 10 μM single dose; MCF7, Breast cancer; read-out: Cell Growth inhibition Percent
Experimental: as §1, §2, §3, §4

MDA-MB-231/ATCC = experiment: NCI-60 single-dose antiproliferative assay (SRB); assay type: cell-based; settings: Homo sapiens, 10 μM single dose, Breast cancer, read-out: Cell Growth inhibition Percent
Experimental: as §1, §2, §3, §4

SK-MEL-5 = experiment: NCI-60 single-dose antiproliferative assay (SRB); assay type: cell-based; settings: Homo sapiens; 10 μM single dose; SK-MEL-5, Melanoma; read-out: Cell Growth inhibition Percent
Experimental: as §1, §2, §3, §4

CAKI-1 = experiment: NCI-60 single-dose antiproliferative assay (SRB); assay type: cell-based; settings: Homo sapiens; 10 μM single dose; CAKI-1, Renal cancer; read-out: Cell Growth inhibition Percent
Experimental: as §1, §2, §3, §4

T-47D = experiment: NCI-60 single-dose antiproliferative assay (SRB); assay type: cell-based; settings: Homo sapiens, T47D, 10 μM single dose, Breast cancer, read-out: Cell Growth inhibition Percent
Experimental: as §1, §2, §3, §4

KM12 = experiment: NCI-60 single-dose antiproliferative assay (SRB); assay type: cell-based; settings: Homo sapiens; 10 μM single dose; KM12, Colon cancer; read-out: Cell Growth inhibition Percent
Experimental: as §1, §2, §3, §4

NCI-H23 = experiment: NCI-60 single-dose antiproliferative assay (SRB); assay type: cell-based; settings: Homo sapiens; 10 μM single dose; NCI-H23, Non-small cell lung cancer; read-out: Cell Growth inhibition Percent
Experimental: as §1, §2, §3, §4

786-0 = experiment: NCI-60 single-dose antiproliferative assay (SRB); assay type: cell-based; settings: Homo sapiens; 10 μM single dose; 786-0, Renal cancer; read-out: Cell Growth inhibition Percent
Experimental: as §1, §2, §3, §4

HL-60(TB) = experiment: NCI-60 single-dose antiproliferative assay (SRB); assay type: cell-based; settings: Homo sapiens, 10 μM single dose, Leukemia, read-out: Cell Growth inhibition Percent
Experimental: as §1, §2, §3, §4

K-562 = experiment: NCI-60 single-dose antiproliferative assay (SRB); assay type: cell-based; settings: Homo sapiens, K562; 10 μM single dose; K-562, Leukemia; read-out: Cell Growth inhibition Percent
Experimental: as §1, §2, §3, §4

SN12C = experiment: NCI-60 single-dose antiproliferative assay (SRB); assay type: cell-based; settings: Homo sapiens, 10 μM single dose, Renal cancer, read-out: Cell Growth inhibition Percent
Experimental: as §1, §2, §3, §4

HOP-92 = experiment: NCI-60 single-dose antiproliferative assay (SRB); assay type: cell-based; settings: Homo sapiens; 10 μM single dose; HOP-92, Non-small cell lung cancer; read-out: Cell Growth inhibition Percent
Experimental: as §1, §2, §3, §4

NCI-H522 = experiment: NCI-60 single-dose antiproliferative assay (SRB); assay type: cell-based; settings: Homo sapiens; 10 μM single dose; NCI-H522, Non-small cell lung cancer; read-out: Cell Growth inhibition Percent
Experimental: as §1, §2, §3, §4

hCA I = hCA I (Homo sapiens, UniProt P00915); experiment: Stopped flow CO2 hydrase assay
Sequence of hCA I (P00915 whole entry): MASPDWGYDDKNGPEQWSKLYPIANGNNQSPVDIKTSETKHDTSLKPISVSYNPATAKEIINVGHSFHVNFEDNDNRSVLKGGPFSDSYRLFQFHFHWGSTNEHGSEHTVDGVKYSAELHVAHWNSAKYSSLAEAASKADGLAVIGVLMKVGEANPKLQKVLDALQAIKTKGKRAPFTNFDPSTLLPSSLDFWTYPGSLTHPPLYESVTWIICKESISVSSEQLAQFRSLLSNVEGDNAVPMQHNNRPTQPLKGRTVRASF

hCA II [3] = molecular target: T3, hCA II (Homo sapiens, UniProt P00918); experiment: Stopped flow CO2 hydrase assay
VEGFRII = settings: cited from earlier work
PDGFR α = settings: cited from earlier work
VEGFRIII = settings: cited from earlier work
VEGFRI = settings: cited from earlier work
FGFRII = settings: cited from earlier work
PDGF = settings: Fig. 2, reported multi-kinase inhibitors; cited from earlier work
FGFRI = settings: read-out: IC50 FGFRI; cited from earlier work
PDGFR β = settings: Fig. 2, reported multi-kinase inhibitors; read-out: PDGFB IC50; cited from earlier work
[4] = cited from earlier work
VEGF = settings: Fig. 2, reported multi-kinase inhibitors; cited from earlier work
hCA II [5] = molecular target: T3, hCA II; design: made in house; method as in PMID 15499993, PMID 12678681, PMID 31313595, PMID 26745009; settings: reported CAIs, Fig. 1; cited from earlier work
hCA IX [6] = molecular target: T2, hCA IX; design: made in house; settings: reported CAIs, Fig. 1; cited from earlier work
hCA XII [7] = molecular target: T1, hCA XII; design: made in house; settings: reported CAIs, Fig. 1; cited from earlier work

## O=C1Nc2ccccc2C1=CNc1ccc(C(=O)C=CNc2ccc(S(=O)(=O)Nc3ncccn3)cc2)cc1 [Compound 13b, 4-{[3-Oxo-3-(4-{[(2-oxoindolin-3-ylidene)methyl]amino}phenyl)prop-1-en-1-yl]amino}-N-(pyrimidin-2-yl)benzenesulfonamide]
UO-31
  inhibition at 10 µM: 7.6%
hCA XII [1]
  Ki: > 10000 nM
hCA IX [2]
  Ki: > 10000 nM
A498
  inhibition at 10 µM: 1.46%
RPMI-8226
  inhibition at 10 µM: 13.6%
SR
  inhibition at 10 µM: 17.9%
MCF7
  inhibition at 10 µM: 12.6%
MDA-MB-231/ATCC
  inhibition at 10 µM: 0.12%
SK-MEL-5
  inhibition at 10 µM: 1.85%
CAKI-1
  inhibition at 10 µM: 5.62%
T-47D
  inhibition at 10 µM: 6.91%
KM12
  inhibition at 10 µM: 62.7%
NCI-H23
  inhibition at 10 µM: 3.53%
786-0
  inhibition at 10 µM: 3.85%
HL-60(TB)
  inhibition at 10 µM: 0.37%
K-562
  inhibition at 10 µM: 2.89%
SN12C
  inhibition at 10 µM: 1.75%
HOP-92
  inhibition at 10 µM: 6.38%
NCI-H522
  inhibition at 10 µM: 1.35%
hCA I
  Ki: > 10000 nM
other
  melting point: 290 to 294 °C
hCA II [3]
  Ki: > 10000 nM

## COC(=O)c1ccc2c(c1)NC(=O)/C2=C(\Nc1ccc(N(C)C(=O)CN2CCN(C)CC2)cc1)c1ccccc1 [Nintedanib]
VEGFRII; read-out: IC50 VEGFRII
  IC50: 13 nM
PDGFR α
  IC50: 59 nM
VEGFRIII
  IC50: 13 nM
VEGFRI; read-out: IC50 VEGFRI
  IC50: 34 nM
FGFRII
  IC50: 37 nM
PDGF
  IC50: 59 nM
FGFRI
  IC50: 69 nM

## CNC(=O)c1cc(Oc2ccc(NC(=O)Nc3ccc(Cl)c(C(F)(F)F)c3)c(F)c2)ccn1 [Regorafenib]
VEGFRII; Fig. 2, reported multi-kinase inhibitors, read-out: VEGFII IC50
  IC50: 42 nM
PDGFR β
  IC50: 22 nM
VEGFRI; Fig. 2, reported multi-kinase inhibitors, read-out: VEGFI IC50
  IC50: 13 nM

## CCN(CC)CCNC(=O)c1c(C)[nH]c(/C=C2\C(=O)Nc3ccc(F)cc32)c1C [Sunitinib]
[4]; Fig. 2, read-out: cytotoxicity average IC50
  IC50: 8110 nM
VEGF
  IC50: 80 nM
PDGF
  IC50: 2 nM

## COc1ccc(C2=NN(c3nc4ccccc4s3)C(c3cc(OC)c(OC)c(OC)c3)C2)cc1 (stereo not drawn) [VIII]
[4]; Fig. 1
  Tumor selectivity (TS): 29.3
[4]; Fig. 1, read-out: Cytotoxicity average IC50
  IC50: 18700 nM
hCA II [5]
  Ki: 22700 nM

## O=S(=O)(Nc1nc2ccc(Cl)cc2s1)c1ccc(F)cc1 [VI]
hCA IX [6]
  Ki: 950 nM
hCA XII [7]
  Ki: 85 nM

## O=C(O)c1cc(Sc2ccccn2)cc([N+](=O)[O-])c1 [V]
hCA IX [6]
  Ki: 18 nM
hCA XII [7]
  Ki: 82.1 nM
